According to article PMC6008465 (British Journal of Cancer, 2018):
Marks after values point to notes of the source that are not given here.

Assay: Part A pharmacokinetics (plasma and urine, noncompartmental analysis)
Format: in vivo, human
Protocol: In Part A, blood was collected on Cycle 1, Days 1 and 15 at specified intervals prior to, during, and postinfusion (5 min–8 h), and on Days 2, 3, 16, and 17 (24 and 48 h postinfusion). Urine was collected on Cycle 1, Day 1 preinfusion, at 0–8 h, and 8–24 h. In Part B, blood was collected on Cycle 1, Day 1, prior to, during, and at 1–24 h postinfusion. Pharmacokinetic parameters were calculated using noncompartmental analysis.

[1] = Cycle 1 Day 1, 160 mg/m^2 (n=3)
[2] = Cycle 1 Day 1, 320 mg/m^2 (n=7)
[3] = Cycle 1 Day 1, 400 mg/m^2 (n=1)
[4] = Cycle 1 Day 1, 480 mg/m^2 (n=4)
[5] = Cycle 1 Day 15, 20 mg/m^2 (n=3)
[6] = Cycle 1 Day 15, 40 mg/m^2 (n=3)
[7] = Cycle 1 Day 15, 80 mg/m^2 (n=3)
[8] = Cycle 1 Day 15, 160 mg/m^2 (n=3)
[9] = Cycle 1 Day 15, 320 mg/m^2 (n=6)
[10] = Cycle 1 Day 15, 400 mg/m^2 (n=1)
[11] = Cycle 1 Day 15, 480 mg/m^2 (n=4)

SMILES: CCNc1cc(O)c2c(c1)/C=C/C[C@H](O)[C@H](O)C(=O)/C=C\[C@@H](C)[C@H](C)OC2=O [E6201, (3S,4R,5Z,8S,9S,11E)-14-(ethylamino)-8,9,16-trihydroxy-3,4-dimethyl-3,4,9,19-tetrahydro-1H-2-benzoxacyclotetradecine-1,7 (8H)-dione]
- Tmax, median (range) (Cycle 1 Day 1, 80 mg/m^2 (n=3)): 0.5 (0.25–0.5) h
- Vss, mean (%CV) (Cycle 1 Day 1, 80 mg/m^2 (n=3)): 135 (100) L
- fe (fraction of drug excreted in urine), mean (%CV) (Cycle 1 Day 1, 80 mg/m^2 (n=3)): 0.04 (26) %
- t½, mean (Cycle 1 Day 1, 80 mg/m^2 (n=3)): 2.79 (--) h
- AUC(0-t), mean (%CV) [1]: 2770 (36) ng·h/mL
- CL, mean (%CV) [1]: 119 (50) L/h
- CLR (renal clearance), mean (%CV) [1]: 89.7 (299) mL/h
- Cmax, mean (%CV) [1]: 2740 (51) ng/mL
- Tmax, median (range) [1]: 0.5 (0.25–0.5) h
- Vss, mean (%CV) [1]: 216 (55) L
- fe (fraction of drug excreted in urine), mean (%CV) [1]: 0.0567 (186) %
- t½, mean [1]: 3.98 (--) h
- AUC(0-t), mean (%CV) [2]: 10400 (26) ng·h/mL
- CL, mean (%CV) [2]: 57.2 (22) L/h
- CLR (renal clearance), mean (%CV) [2]: 60.0 (659) mL/h
- Cmax, mean (%CV) [2]: 14800 (73) ng/mL
- Tmax, median (range) [2]: 0.25 (0.25–0.5) h
- Vss, mean (%CV) [2]: 89.1 (36) L
- fe (fraction of drug excreted in urine), mean (%CV) [2]: 0.109 (56) %
- t½, mean [2]: 4.00 (--) h
- AUC(0-t), mean (%CV) [3]: 13500 (--) ng·h/mL
- CL, mean (%CV) [3]: 52.8 (--) L/h
- CLR (renal clearance), mean (%CV) [3]: 111 (--) mL/h
- Cmax, mean (%CV) [3]: 19500 (--) ng/mL
- Tmax, median (range) [3]: 0.25 (0.25–0.25) h
- Vss, mean (%CV) [3]: 80.1 (---) L
- fe (fraction of drug excreted in urine), mean (%CV) [3]: 0.21 (--) %
- t½, mean [3]: 6.50 (--) h
- AUC(0-t), mean (%CV) [4]: 10200 (56) ng·h/mL
- CL, mean (%CV) [4]: 101 (44) L/h
- CLR (renal clearance), mean (%CV) [4]: 137 (128) mL/h
- Cmax, mean (%CV) [4]: 8070 (55) ng/mL
- Tmax, median (range) [4]: 0.375 (0.25–0.5) h
- Vss, mean (%CV) [4]: 275 (42) L
- fe (fraction of drug excreted in urine), mean (%CV) [4]: 0.143 (96) %
- t½, mean [4]: 5.97 (--) h
- AUC(0-t), mean (%CV) [5]: 1420 (250) ng·h/mL
- Cmax, mean (%CV) [5]: 895 (228) ng/mL
- Tmax, median (range) [5]: 0.5 (0.25–0.5) h
- CL, mean (%CV) (Cycle 1 Day 15, 20 mg/m^2, n=1): 184^c (--) L/h
- Vss, mean (%CV) (Cycle 1 Day 15, 20 mg/m^2, n=1): 324^ c (--) L
- t½, mean (Cycle 1 Day 15, 20 mg/m^2, n=1): 1.58^c (--) h
- AUC(0-t), mean (%CV) [6]: 2090 (169) ng·h/mL
- Cmax, mean (%CV) [6]: 767 (78) ng/mL
- Tmax, median (range) [6]: 0.5 (0.25–0.5) h
- t½, mean (Cycle 1 Day 15, 40 mg/m^2, n=2): 1.88^ b (--) h
- Vss, mean (%CV) (Cycle 1 Day 15, 40 mg/m^2, n=2, %CV 27): 115^b (27) L
- CL, mean (%CV) (Cycle 1 Day 15, 40 mg/m^2, n=2, %CV 47): 91^b (47) L/h
- AUC(0-t), mean (%CV) [7]: 2540 (66) ng·h/mL
- Cmax, mean (%CV) [7]: 2590 (154) ng/mL
- Tmax, median (range) [7]: 0.25 (0.25–0.5) h
- t½, mean [7]: 5.55 (--) h
- CL, mean (%CV) (Cycle 1 Day 15, 80 mg/m^2, n=2, %CV 67): 76.2^ b (67) L/h
- Vss, mean (%CV) (Cycle 1 Day 15, 80 mg/m^2, n=2, %CV 146): 148^ b (146) L
- AUC(0-t), mean (%CV) [8]: 4300 (32) ng·h/mL
- CL, mean (%CV) [8]: 71.2 (18) L/h
- Cmax, mean (%CV) [8]: 5430 (120) ng/mL
- Tmax, median (range) [8]: 0.25 (0.25–0.5) h
- Vss, mean (%CV) [8]: 110 (74) L
- t½, mean [8]: 4.20 (--) h
- AUC(0-t), mean (%CV) [9]: 11100 (13) ng·h/mL
- CL, mean (%CV) [9]: 49.8 (18) L/h
- Cmax, mean (%CV) [9]: 18000 (64) ng/mL
- Tmax, median (range) [9]: 0.25 (0.25–0.5) h
- Vss, mean (%CV) [9]: 111 (69) L
- t½, mean [9]: 6.83 (--) h
- AUC(0-t), mean (%CV) [10]: 10500 (--) ng·h/mL
- Cmax, mean (%CV) [10]: 21600 (--) ng/mL
- Tmax, median (range) [10]: 0.25 (0.25–0.25) h
- AUC(0-t), mean (%CV) [11]: 11300 (73) ng·h/mL
- CL, mean (%CV) [11]: 82 (38) L/h
- Cmax, mean (%CV) [11]: 12200 (88) ng/mL
- Tmax, median (range) [11]: 0.375 (0.25–0.5) h
- Vss, mean (%CV) [11]: 217 (84) L
- t½, mean [11]: 4.78 (--) h
- Accumulation on multiple dosing (Day 15 vs Day 1, once-weekly dosing): Lack of E6201 accumulation
- Mean clearance (CL), range over dose groups (Part A): 49.8 to 184 L/h
- Renal clearance (CLR), range over dose groups (Part A): 1.65 to 137 mL/h
- Time of peak E6201 concentration (mid-to-end of infusion) (Part A, 30-min IV infusion): 0.25 to 0.5 h
